Assay [1] has as its system E. coli AG100. Put plainly: Real-time ethidium bromide accumulation (efflux pump inhibition, AcrAB-TolC). It counts as cell-based, Escherichia coli. The conditions noted are these: compounds at ¼ MIC, EB 1 μg/mL, minute 30. How it is done:
(§1) Since multidrug resistance EPs are very important factors contributing to multidrug resistance (MDR) in both Gram-positive and Gram-negative bacteria, the inhibition of these pumps could reverse the resistant phenotype and restore the activity of antibiotics. The effect of compounds on ethidium bromide (EB) accumulation was determined by the automated EB method. This assay was used to determine how much of the fluorescent dye and pump substrate EB was accumulated by the bacterial cells in the presence of the tested compounds. The real-time accumulation of EB was monitored for 30 min in both S. aureus and E. coli strains.
(§2) The accumulation of the efflux pump substrate EB was monitored by the automated EB method using a LightCycler real-time thermocycler (LightCycler 1.5, Roche, Indianapolis, IN, USA). An aliquot of an overnight culture of the S. aureus strains in TSB medium was inoculated into fresh TSB medium, and it was incubated until it reached an optical density (OD) of 0.6 at 600 nm. In the case of E. coli strains, the medium applied in the assay was LB broth; the preparation of the inoculum was similar to the one of S. aureus. The cells were washed with phosphate buffered saline (PBS; pH 7.4) and centrifuged at 13,000 × g for 3 min, the pellets were re-suspended in PBS (pH 7.4), and the OD was calibrated to 0.6 at 600 nm. The compounds were measured at ¼ MIC concentration (in double-concentrated form) to the EB solution in PBS. The final concentration of EB was determined according to the MIC and the fluorescent signal produced by this amount of EB. In the case of all strains, the concentration of EB was 1 μg/mL. Then, 10 μL of the EB solution plus the compound were pipetted into standard glass capillary tubes of 20 µL maximum volume (Roche, Indianapolis, USA), and 10 μL of bacterial culture (OD of 0.6 at 600 nm) were transferred to the capillaries. The capillaries containing the samples were placed into the carousel, and the fluorescence was monitored at the FL-2 channel in every minute on a real-time basis.
(§3) Based on the data obtained, the relative fluorescence index (RFI) of the last time point (minute 30) was determined as follows:RFI = (RFtreated − RFuntreated)/RFuntreated(1) where RFtreated is the relative fluorescence (RF) at the last time point of the EB retention curve in the presence of an inhibitor, and RFuntreated is the relative fluorescence at the last time point of the EB retention curve of the untreated control having the solvent control (DMSO).

Assay [2] has as its system S. aureus 272123 (MRSA). In words: Minimum inhibitory concentration (broth microdilution, CLSI). It is filed as cell-based, Staphylococcus aureus. The conditions noted are these: 18 h, visual inspection. How it is done: (§4) The compounds were further investigated against two Gram-positive strains, S. aureus ATCC 25923 (MSSA), used as the methicillin susceptible reference strain, and the methicillin- and ofloxacin-resistant S. aureus 272123 clinical isolate (MRSA), which was given by Prof. Dr. Leonard Amaral (Institute of Hygiene and Tropical Medicine, Lisbon, Portugal).
(§5) The minimum inhibitory concentrations (MICs) of compounds were determined in 96-well plates based on the Clinical and Laboratory Standard Institute guidelines (CLSI guidelines). The compounds were diluted in 100 μL of MHB. Then, 10^−4 dilution of an overnight bacterial culture in 100 μL of medium were added to each well, with the exception of the medium control wells.
(Broth dilution looks for growth in wells or tubes with falling amounts of substance.)

The next assay concerns S. aureus ATCC 25923. In words: Real-time ethidium bromide accumulation (efflux pump inhibition). It counts as cell-based, Staphylococcus aureus. The conditions noted are these: compounds at ¼ MIC, EB 1 μg/mL, minute 30. How it is done: as §1, §2, §3
Assay [3] concerns S. aureus 272123 (MRSA). The description is as above. It is filed as cell-based, Staphylococcus aureus. The note with it: compounds at ¼ MIC (3 at 12.5 µM), VER at 25 µM, EB 1 μg/mL, minute 30. How it is done:
as §1, §2, §3

Assay [4] relates to Staphylococcus aureus ATCC 25923. In words: Minimum inhibitory concentration (broth microdilution, CLSI). The conditions noted are these: S. aureus ATCC 25923; 18 h, visual inspection. It is filed as cell-based. How it is done: as §4, §5
In assay [5] the test system is E. coli AG100 A. In words: Real-time ethidium bromide accumulation (efflux pump inhibition). It counts as cell-based, Escherichia coli. The conditions noted are these: compounds at ¼ MIC, EB 1 μg/mL, minute 30. How it is done: as §1, §2, §3
Assay [6] concerns MRC-5 human embryonal lung fibroblast cell line. Put plainly: Cytotoxicity assay (MTT). The note with it: 24 h. It is filed as cell-based. How it is done:
The MRC-5 human embryonic lung fibroblast cell line (ATCC CCL-171; provider: LGC Promochem, Teddington, UK) was used in the experiments. The cells were cultivated in Eagle’s Minimal Essential Medium (EMEM; Sigma–Aldrich, St. Louis, MO, USA), supplemented with 1% non-essential amino acid mixture, 10% heat-inactivated fetal bovine serum, 2 mM L-glutamine, 1 mM Na-pyruvate, nystatin, and a penicillin–streptomycin mixture in concentrations of 100 U/L and 10 mg/L, respectively. The supplementary components were obtained from Sigma–Aldrich, St. Louis, MO, USA. The cell culture was kept in a humidified atmosphere (5% CO2, 95% air) at 37 °C.
The activity of increasing concentrations of the compounds on cell growth was determined in 96-well flat-bottomed microtiter plates by two-fold serial dilutions of the benzoxazole derivatives. The adherent human embryonic lung fibroblast cells (10^4/well) was seeded in EMEM medium in 96-well microtiter plates for 4 h prior to the assay. The serial dilutions of the compounds were made in a separate plate, and then pipetted to the plates containing the MRC-5 cell line. Culture plates were incubated at 37 °C for 24 h; at the end of the incubation period, 20 μL of MTT (3-(4,5-dimethylthiazol-2-yl)-2,5-diphenyltetrazolium bromide) solution (from a 5 mg/mL stock solution) was measured to each well. After the incubation at 37 °C for 4 h, 100 μL of sodium dodecyl sulfate (SDS) solution (10% SDS in 0.01 M HCl) was added to each well to dissolve the formazan crystals and the samples were further incubated at 37 °C overnight. Cell growth was calculated by measuring the OD at 540 nm (ref. 630 nm) with a Multiscan EX ELISA reader. The cytotoxicity was expressed as IC50 values, defined as the inhibitory dose that reduces the growth of the cells exposed to the tested compounds by 50%.

In assay [7] the test system is E. coli AG100. Put plainly: Minimum inhibitory concentration (broth microdilution, CLSI). It counts as cell-based, Escherichia coli. The conditions noted are these: E. coli AG100; 18 h, visual inspection; read-out: MIC. How it is done: The strains were donated by Prof. Dr. Hiroshi Nikaido (Department of Molecular and Cell Biology and Chemistry, University of California, Berkeley, CA, USA).
as §5

Assay [8] deals with E. coli AG100 A. The description is as above. It counts as cell-based, Escherichia coli. The conditions noted are these: E. coli AG100 A (AcrAB-TolC deleted); 18 h, visual inspection. How it is done:
Wild-type E. coli K-12 AG100 strain (argE3 thi-1 rpsL xyl mtl Δ(gal-uvrB) supE44) expressing the AcrAB TolC EP at its basal level and its AcrAB-TolC deleted mutant E. coli K-12 AG100 A strain. The strains were donated by Prof. Dr. Hiroshi Nikaido (Department of Molecular and Cell Biology and Chemistry, University of California, Berkeley, CA, USA).
as §5

The test system of assay [9] is C. violaceum 026 sensor strain with AHL producer E. cloacae 31298. Put plainly: Quorum sensing inhibition (agar diffusion, violacein production). It is filed as cell-based, Chromobacterium violaceum. The note with it: disc with 10 μL of 1 mM stock; reduction of violacein zone. How it is done:
(§6) The following bacterial strains were applied in the QS tests: C. violaceum 026 as sensor strain and E. cloacae 31298 isolated from clinical wound (used as N-acyl-homoserine lactone (AHL) producer); this strain induced pigment production by C. violaceum and is a model strain to study QS interactions.
LB* was applied for these experiments. The sensor strain C. violaceum 026 and the AHL producer strains E. cloacae 31298 were inoculated as parallel lines and incubated at room temperature for 24–48 h. The inhibition of bacterial communication was determined by the agar diffusion method. Filter paper discs (7.0 mm in diameter) were impregnated with 10 μL of stock solutions (1 mM) of the compounds in DMSO. The discs were placed between the parallel lines of the sensor and the AHL producer strains. The plates were kept at room temperature for another 24–48 h, and the interactions between the strains and compounds were determined as the reduction in the size of the zone of purple pigment (violacein) production in millimeters. PMZ was applied as a positive control.
(In general: A growth-free zone around the sample is the usual read-out of agar diffusion tests.)

Assay [10] concerns Enterobacter cloacae 31298. In words: Minimum inhibitory concentration (broth microdilution, CLSI). The note with it: E. cloacae 31298. It counts as cell-based. How it is done:
as §6, §5

Assay [11] deals with Chromobacterium violaceum 026. The assay is described as above. It is filed as cell-based. The conditions noted are these: C. violaceum 026. How it is done:
as §6, §5

Assay [12] relates to MDR mouse T-cell lymphoma cells. The arrangement: method as in PMID 30396935. The note with it: preliminary results; cited from earlier work.
In assay [13] the test system is MRC-5 human embryonal lung fibroblast cell line. The arrangement: method as in earlier work. The note with it: cited from earlier work.

What is called MIC is the smallest concentration in the dilution series that meets the test's criterion for growth inhibition. As a reminder, the IC50 is the concentration at which inhibition is half-maximal.

Molecules are shown by their SMILES. Read-outs that look alike come from different tables or passages of the source. Some results are limits rather than exact numbers.

`[Ag+].[Ag+].[O-]C(=Cc1nc2ccccc2o1)C(F)(F)F.[O-]C(=Cc1nc2ccccc2o1)C(F)(F)F` [Compound 11]: the “Relative fluorescence index (RFI)” value with E. coli AG100 [1] is 0.37; in the assay on S. aureus ATCC 25923, 0.11; in the assay on S. aureus 272123 (MRSA) [3], −0.11; in the assay with E. coli AG100 A [5], 0.12. Also, the minimum inhibitory concentration (MIC) is on record as 12.5 µM against S. aureus 272123 (MRSA) [2]; 25 µM in [4]; 25 µM in the assay on E. coli AG100 [7]; 50 µM against E. coli AG100 A [8]; over 100 µM in assay [10]; over 100 µM in assay [11]. The compound also displayed an IC50 in [6] of 65.9 µM. In assay [9], the “Inhibition zone (quorum sensing)” value is listed as 53 mm.
As to `N.N.[Cl][Pt][Cl]` [cisplatin], the figures for the IC50 in [12] and in assay [13] were 11.2 µM and 33.5 µM, respectively.

Source of the values: article PMC7600679, “Benzoxazole-Based Metal Complexes to Reverse Multidrug Resistance in Bacteria” (Antibiotics, 2020).
